Where two headings read alike, the source gives them in different places.

The test system of the assay is DU145-TXR cells. Nature of the assay: MTT viability assay, reversal of MDR (re-sensitization to paclitaxel) in P-gp overexpressing DU145-TXR cells. The assay is classed as cell-based, human. Particulars: for % Survival, mean / % Survival / viability at 15 µM: DU145-TXR; for Re-sensitization of DU145-TXR cells to PTX (reversal of MDR): 15 µM compound with or without 500 nM PTX, 48 h, MTT, re-sensitization = 30% or greater decrease in cell viability; for viability at 15 µM: Homo sapiens. The method, boiled down:
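MTT viability testing was done on P-gp overexpressing, multidrug resistant DU145-TXR human prostate cancer cells. They were kept in 10 nM paclitaxel and seeded at 3,000 cells per well in complete RPMI. Cells were exposed to compound, with or without paclitaxel, for 48 hours. MTT was then added for 4 hours, formazan was dissolved in DMSO, and absorbance was read at 570 nm. Survival was expressed relative to control-treated cells.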

The mark [1] stands for this setting: 15 µM compound + 500 nM PTX (Paclitaxel, Taxol), mean of 8 samples.
Where [2] appears, read: 15 µM compound + 500 nM PTX (Paclitaxel, Taxol), trial 1, sample 1.
Setting [3] is: 15 µM compound + 500 nM PTX (Paclitaxel, Taxol), trial 1, sample 2.
[4] abbreviates: 15 µM compound + 500 nM PTX (Paclitaxel, Taxol), trial 1, sample 3.
Where [5] appears, read: 15 µM compound + 500 nM PTX (Paclitaxel, Taxol), trial 1, sample 4.
[6] abbreviates: 15 µM compound + 500 nM PTX (Paclitaxel, Taxol), trial 2, sample 1.
Where [7] appears, read: 15 µM compound + 500 nM PTX (Paclitaxel, Taxol), trial 2, sample 2.
The mark [8] stands for this setting: 15 µM compound + 500 nM PTX (Paclitaxel, Taxol), trial 2, sample 3.
Setting [9] is: 15 µM compound + 500 nM PTX (Paclitaxel, Taxol), trial 2, sample 4.
Setting [10] is: 15 µM Compound Alone, mean of 8 samples, read-out: % Survival, mean.
[11] abbreviates: 15 µM Compound Alone, trial 1, sample 1, read-out: % Survival.
[12] abbreviates: 15 µM Compound Alone, trial 1, sample 2, read-out: % Survival.
Where [13] appears, read: 15 µM Compound Alone, trial 1, sample 3, read-out: % Survival.
Setting [14] is: 15 µM Compound Alone, trial 1, sample 4, read-out: % Survival.
[15] abbreviates: 15 µM Compound Alone, trial 2, sample 1, read-out: % Survival.
Setting [16] is: 15 µM Compound Alone, trial 2, sample 2, read-out: % Survival.
Where [17] appears, read: 15 µM Compound Alone, trial 2, sample 3, read-out: % Survival.
[18] abbreviates: 15 µM Compound Alone, trial 2, sample 4, read-out: % Survival.

Turning to `Cc1ccc(-c2noc(-c3cn(Cc4ccc(NS(=O)(=O)c5ccccc5F)cc4)cn3)n2)cc1` [Compound 103, Cc1ccc(cc1)-c1noc(n1)-c1cn(Cc2ccc(NS(=O)(=O)c3ccccc3F)cc2)cn1], the “Re-sensitization of DU145-TXR cells to PTX (reversal of MDR)” value (from here on “Re-sensitization of DU145-TXR cells”) is recorded as “re-sensitized DU145-TXR cells to PTX”. Also, the “% Survival, mean” value under setting [1] is reported as 19.9%. Besides, under setting [2], the “% Survival” value is listed as 11%. The “% Survival” value under setting [3] is listed as 11%. In addition, the “% Survival” value under setting [4] was 11%. The “% Survival” value under setting [5] is 14%. Under setting [6], the “% Survival” value is listed as 32%. The “% Survival” value under setting [7] amounted to 27%. Besides, the “% Survival” value under setting [8] was 27%. The “% Survival” value under setting [9] is recorded as 28%. Also, under setting [10], the viability at 15 µM turned out to be 76.4%. Moreover, under setting [11], the viability at 15 µM is 58%. Besides, the viability at 15 µM under setting [12] is 50%. Moreover, the viability at 15 µM under setting [13] was found to be 48%. The viability at 15 µM under setting [14] was determined as 52%. Under setting [15], the viability at 15 µM came out at 108%. Under setting [16], the viability at 15 µM is 104%. Moreover, the viability at 15 µM under setting [17] stood at 94%. Under setting [18], the viability at 15 µM was found to be 96%.

For `Cc1onc(-c2ccccc2)c1-c1nnc(Cn2cnc3ccccc3c2=O)o1` [Compound 111, Cc1onc(c1-c1nnc(Cn2cnc3ccccc3c2=O)o1)-c1ccccc1], the “Re-sensitization of DU145-TXR cells” value is recorded as “re-sensitized DU145-TXR cells to PTX”. Moreover, under setting [1], the “% Survival, mean” value was 41.1%. Further, the “% Survival” value under setting [2] is 30%. In addition, under setting [3], the “% Survival” value came out at 34%. The “% Survival” value under setting [4] worked out at 44%. The “% Survival” value under setting [5] was determined as 39%. Moreover, the “% Survival” value under setting [6] was determined as 51%. For the same compound, the “% Survival” value under setting [7] stood at 48%. Also, the “% Survival” value under setting [8] is 46%. Also, under setting [9], the “% Survival” value is 38%. Also, the viability at 15 µM under setting [10] stood at 102%. For the same compound, the viability at 15 µM under setting [11] came to 111%. In addition, the viability at 15 µM under setting [12] came to 93%. For the same compound, under setting [13], the viability at 15 µM amounted to 90%. In addition, under setting [14], the viability at 15 µM was 94%. The viability at 15 µM under setting [15] came out at 106%. Besides, the viability at 15 µM under setting [16] stood at 115%. Further, the viability at 15 µM under setting [17] is 108%. In addition, under setting [18], the viability at 15 µM was found to be 103%.

Regarding `O=C(NCc1cccc(F)c1)c1nnn2c1Sc1c(C(=O)NCc3cccc(F)c3)nnn1CC2` [Compound 122, Fc1cccc(CNC(=O)c2nnn3CCn4nnc(C(=O)NCc5cccc(F)c5)c4Sc23)c1], the “Re-sensitization of DU145-TXR cells” value is “re-sensitized DU145-TXR cells to PTX”. In addition, the “% Survival, mean” value under setting [1] was found to be 60.4%. Also, the “% Survival” value under setting [2] amounted to 61%. Also, the “% Survival” value under setting [3] amounted to 55%. Also, the “% Survival” value under setting [4] is 61%. Moreover, the “% Survival” value under setting [5] is given as 62%. Under setting [6], the “% Survival” value was 65%. Further, the “% Survival” value under setting [7] is 63%. Moreover, under setting [8], the “% Survival” value is listed as 54%. In addition, the “% Survival” value under setting [9] came out at 61%. In addition, the viability at 15 µM under setting [10] came to 106%. The viability at 15 µM under setting [11] was 102%. For the same compound, the viability at 15 µM under setting [12] amounted to 105%. The viability at 15 µM under setting [13] turned out to be 85%. Moreover, under setting [14], the viability at 15 µM stood at 102%. Further, the viability at 15 µM under setting [15] was found to be 123%. Further, the viability at 15 µM under setting [16] was found to be 107%. The viability at 15 µM under setting [17] is 106%. Moreover, under setting [18], the viability at 15 µM amounted to 114%.

In the case of `O=C(c1nc(-c2ccccn2)no1)N1CCN(c2nsc3ccccc23)CC1` [Compound 124, O=C(N1CCN(CC1)c1nsc2ccccc12)c1nc(no1)-c1ccccn1], the “Re-sensitization of DU145-TXR cells” value was “re-sensitized DU145-TXR cells to PTX”. Moreover, under setting [1], the “% Survival, mean” value was 75.6%. The “% Survival” value under setting [2] was determined as 62%. Moreover, the “% Survival” value under setting [3] stood at 72%. Moreover, under setting [4], the “% Survival” value worked out at 95%. Under setting [5], the “% Survival” value worked out at 73%. Under setting [6], the “% Survival” value was found to be 91%. In addition, the “% Survival” value under setting [7] is 86%. The “% Survival” value under setting [8] worked out at 67%. Moreover, the “% Survival” value under setting [9] was found to be 58%. For the same compound, the viability at 15 µM under setting [10] came out at 98.6%. In addition, the viability at 15 µM under setting [11] was found to be 96%. Further, under setting [12], the viability at 15 µM was 102%. For the same compound, under setting [13], the viability at 15 µM was found to be 79%. Further, under setting [14], the viability at 15 µM stood at 95%. For the same compound, the viability at 15 µM under setting [15] was 114%. In addition, the viability at 15 µM under setting [16] was 94%. The viability at 15 µM under setting [17] turned out to be 103%. Besides, the viability at 15 µM under setting [18] was found to be 106%.

`COc1ccc2c3c([nH]c2c1)[C@H](CC(C)C)N1C(=O)[C@H](CCC(=O)OC(C)(C)C)NC(=O)[C@@H]1C3` [Ko143, reference compound]: the “% Survival, mean” value was found to be 89.2% (15 µM Compound Alone, mean of 8 samples) and 72.4% under setting [1]. Further, the “% Survival” value (15 µM Compound Alone, trial 1, sample 1) is 101%; the “% Survival” value (15 µM Compound Alone, trial 1, sample 2) turned out to be 113%; the “% Survival” value (15 µM Compound Alone, trial 1, sample 3) was 88%; the “% Survival” value (15 µM Compound Alone, trial 1, sample 4) came out at 91%; the “% Survival” value (15 µM Compound Alone, trial 2, sample 1) worked out at 92%; the “% Survival” value (15 µM Compound Alone, trial 2, sample 2) stood at 74%. For the same compound, the “% Survival” value came out at 75% (15 µM Compound Alone, trial 2, sample 3); 80% (15 µM Compound Alone, trial 2, sample 4); 75% under setting [2]; 82% under setting [3]; 91% under setting [4]; 77% under setting [5]. Moreover, the “% Survival” value under setting [6] worked out at 65%, the “% Survival” value under setting [7] is recorded as 67%, the “% Survival” value under setting [8] came out at 58% and the “% Survival” value under setting [9] stood at 64%.

On to `COc1cc2c(cc1OC)CN(CCc1ccc(NC(=O)c3cc(OC)c(OC)cc3NC(=O)c3cnc4ccccc4c3)cc1)CC2` [Tariquidar, reference compound], for which the “% Survival, mean” value under setting [1] was 13.1%. Moreover, the “% Survival” value came to 11% under setting [2]; 10% under setting [3]; 21% under setting [4]; 13% under setting [5]; 20% under setting [6]; 13% under setting [7]. In addition, the “% Survival” value worked out at 9% under setting [8] and 7.57% under setting [9]. The viability at 15 µM under setting [10] was determined as 101%; the viability at 15 µM under setting [11] worked out at 139%; the viability at 15 µM under setting [12] was 94%; the viability at 15 µM under setting [13] amounted to 96%; the viability at 15 µM under setting [14] is 95%; the viability at 15 µM under setting [15] came to 80%. In addition, the viability at 15 µM is, setting by setting: under setting [16], 106%; under setting [17], 79%; under setting [18], 123%.

Source of the values: publication PMC12349723, “Computationally accelerated identification of P-glycoprotein inhibitors” (PLOS One, 2025).
